Data reported in patent US8637513B2, “Heterocycle phenyl amide T-type calcium channel antagonists” (Merck Sharp & Dohme Corp., priority 2007, dated 2014).

Biological target: T1, T-type channel alpha1I (CaV 3.3) (Homo sapiens, UniProt Q9P0X4)
T1 construct: expressed in transfected cells; host or cells: HEK 293 cells, tetracycline-inducible expression
Assay: FLIPR Ca2+ Flux Assay
Assay type: cell-based
Details: alpha1I subtype; read-out: FLIPR alpha1I IP

T1 sequence (Q9P0X4 whole entry): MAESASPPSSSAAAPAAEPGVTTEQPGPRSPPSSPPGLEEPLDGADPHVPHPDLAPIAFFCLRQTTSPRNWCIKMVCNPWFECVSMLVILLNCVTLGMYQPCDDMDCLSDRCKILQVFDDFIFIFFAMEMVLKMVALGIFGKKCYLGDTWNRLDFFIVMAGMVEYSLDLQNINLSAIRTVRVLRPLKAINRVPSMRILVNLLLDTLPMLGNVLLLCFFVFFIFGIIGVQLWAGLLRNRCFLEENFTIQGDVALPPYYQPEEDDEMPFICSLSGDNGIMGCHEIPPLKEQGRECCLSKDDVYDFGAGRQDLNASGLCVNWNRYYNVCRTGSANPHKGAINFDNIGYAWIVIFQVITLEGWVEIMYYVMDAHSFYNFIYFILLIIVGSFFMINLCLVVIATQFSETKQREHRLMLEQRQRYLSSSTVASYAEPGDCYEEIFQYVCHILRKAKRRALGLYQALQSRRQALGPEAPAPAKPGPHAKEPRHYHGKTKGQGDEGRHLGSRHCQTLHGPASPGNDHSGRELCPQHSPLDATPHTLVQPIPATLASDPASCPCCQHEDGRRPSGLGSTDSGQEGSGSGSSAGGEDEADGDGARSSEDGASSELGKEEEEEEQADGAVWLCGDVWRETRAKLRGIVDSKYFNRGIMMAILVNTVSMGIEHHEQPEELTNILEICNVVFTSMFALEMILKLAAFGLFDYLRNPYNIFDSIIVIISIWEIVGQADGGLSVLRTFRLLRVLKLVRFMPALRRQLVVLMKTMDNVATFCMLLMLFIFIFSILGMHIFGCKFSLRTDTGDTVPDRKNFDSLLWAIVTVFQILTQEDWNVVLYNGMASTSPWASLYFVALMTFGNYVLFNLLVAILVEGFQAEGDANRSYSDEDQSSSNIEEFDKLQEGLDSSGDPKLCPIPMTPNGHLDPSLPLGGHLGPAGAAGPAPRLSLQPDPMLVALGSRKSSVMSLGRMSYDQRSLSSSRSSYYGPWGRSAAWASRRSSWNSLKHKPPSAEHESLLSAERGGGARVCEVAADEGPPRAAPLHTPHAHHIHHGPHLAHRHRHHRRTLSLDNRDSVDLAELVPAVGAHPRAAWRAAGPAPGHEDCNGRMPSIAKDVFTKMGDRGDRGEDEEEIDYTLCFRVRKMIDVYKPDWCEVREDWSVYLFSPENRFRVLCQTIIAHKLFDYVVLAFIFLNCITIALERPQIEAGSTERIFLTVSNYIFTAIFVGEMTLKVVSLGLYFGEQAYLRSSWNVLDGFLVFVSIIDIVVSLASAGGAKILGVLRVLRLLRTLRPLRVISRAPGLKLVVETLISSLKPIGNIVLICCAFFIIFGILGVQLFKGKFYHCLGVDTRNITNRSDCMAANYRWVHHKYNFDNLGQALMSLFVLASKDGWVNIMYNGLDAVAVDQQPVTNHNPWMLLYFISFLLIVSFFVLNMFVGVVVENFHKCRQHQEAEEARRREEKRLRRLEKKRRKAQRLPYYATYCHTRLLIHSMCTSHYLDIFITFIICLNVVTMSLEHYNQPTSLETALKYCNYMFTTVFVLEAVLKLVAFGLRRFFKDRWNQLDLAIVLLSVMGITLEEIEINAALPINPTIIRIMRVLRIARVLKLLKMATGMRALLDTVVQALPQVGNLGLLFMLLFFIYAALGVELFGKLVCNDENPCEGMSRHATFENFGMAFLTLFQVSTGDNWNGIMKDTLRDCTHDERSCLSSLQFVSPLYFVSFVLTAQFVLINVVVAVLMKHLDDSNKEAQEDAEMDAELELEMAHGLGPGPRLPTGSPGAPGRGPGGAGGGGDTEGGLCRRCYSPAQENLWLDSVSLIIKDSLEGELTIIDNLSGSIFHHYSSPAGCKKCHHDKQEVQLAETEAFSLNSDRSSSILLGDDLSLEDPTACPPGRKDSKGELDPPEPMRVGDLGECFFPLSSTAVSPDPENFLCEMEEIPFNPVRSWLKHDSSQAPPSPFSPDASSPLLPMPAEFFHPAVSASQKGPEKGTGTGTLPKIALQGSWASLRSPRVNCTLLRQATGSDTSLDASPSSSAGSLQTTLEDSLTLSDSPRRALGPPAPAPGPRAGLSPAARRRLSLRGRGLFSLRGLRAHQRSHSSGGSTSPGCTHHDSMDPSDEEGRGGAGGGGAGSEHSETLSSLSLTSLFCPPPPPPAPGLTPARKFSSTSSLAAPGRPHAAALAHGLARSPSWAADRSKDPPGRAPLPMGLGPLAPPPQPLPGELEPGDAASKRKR

Compound	IC50
C[C@@H](NC(=O)Cc1ccc(-c2cc3ccccc3n2C)cc1)c1ccc(OCC(F)(F)F)cn1 [Example 3, 2-[4-(1-Methyl-1H-indol-2-yl)phenyl]-N-{(1R)-1-[5-(2,2,2-trifluoroethoxy)pyridin-2-yl]ethyl}acetamide]	36 nM
C[C@@H](NC(=O)Cc1ccc(-c2cnccn2)cc1)c1ccc(OCC(F)(F)F)cn1 [Example 5, 2-(4-Pyrazin-2-ylphenyl)-N-{(1R)-1-[5-(2,2,2-trifluoroethoxy)pyridin-2-yl]ethyl}acetamide]	30 nM
C[C@@H](NC(=O)Cc1ccc(-c2cccc3cncnc23)cc1)c1ccc(OCC(F)(F)F)cn1 [Example 1, 2-(4-Quinazolin-8-ylphenyl)-N-{(1R)-1-[5-(2,2,2-trifluoroethoxy)pyridin-2-yl]ethyl}acetamide]	19 nM
C[C@@H](NC(=O)Cc1ccc(-c2cnn3ncccc23)cc1)c1ccc(OCC(F)(F)F)cn1 [Example 4, 2-(4-Pyrazolo[1,5-b]pyridazin-3-ylphenyl)-N-{(1R)-1-[5-(2,2,2-trifluoroethoxy)pyridin-2-yl]ethyl}acetamide]	5 nM
C[C@@H](NC(=O)Cc1ccc(-c2nccnc2C2CC2)cc1)c1ccc(OCC(F)(F)F)cn1 [Example 6, 2-[4-(3-Cyclopropylpyrazin-2-yl)phenyl]-N-{(1R)-1-[5-(2,2,2-trifluoroethoxy)pyridin-2-yl]ethyl}acetamide]	47 nM
Cc1nccnc1-c1ccc(CC(=O)N[C@H](C)c2ccc(OCC(F)(F)F)cn2)cc1 [Example 2, 2-[4-(3-methylpyrazin-2-yl)phenyl]-N-{(1R)-1-[5-(2,2,2-trifluoroethoxy)pyridin-2-yl]ethyl}acetamide]	24 nM

More lines, now with the values ahead:

IC50	Compound
41 nM	CC1=NOC(C)(c2ccc(CC(=O)N[C@H](C)c3ccc(OCC(F)(F)F)cn3)cc2)C1 (stereo partly drawn) [Example 7, 2-[4-(3,5-Dimethyl-4,5-dihydro-isoxazol-5-yl)phenyl]-N-{(1R)-1-[5-(2,2,2-trifluoroethoxy)pyridin-2-yl]ethyl}acetamide]
73 nM	C[C@@H](NC(=O)Cc1ccc(-n2nc(C3CC3)c3ccccc32)cc1)c1ccc(OCC(F)(F)F)cn1 [Example 10]
46 nM	C[C@@H](NC(=O)Cc1ccc(Oc2nccs2)cc1)c1ccc(OCC(F)(F)F)cn1 [Example 9]
91 nM	C[C@@H](NC(=O)Cc1ccc(OC2CCOC2)cc1)c1ccc(OCC(F)(F)F)cn1 (stereo partly shown) [Example 8]
